Measurements as given in patent US7138389B2, “Oral androgen therapy using modulators of testosterone bioavailability” (University of Washington, priority 2004, dated 2006).
Where two headings read alike, the source gives them in different places. Marks after values point to notes of the source that are not given here. Where a SMILES comes first, the peptide text is derived from it. [ ]: non-standard residue; d: D form. dPhe(4-NH2) = Nc1ccc(C[C@@H](N)C(=O)O)cc1; dPhe(4-Cl) = N[C@H](Cc1ccc(Cl)cc1)C(=O)O; Phe(4-NH2) = Nc1ccc(C[C@H](N)C(=O)O)cc1; d2Nal = N[C@H](Cc1ccc2ccccc2c1)C(=O)O; Lys(iPr) = CC(C)NCCCC[C@H](N)C(=O)O; d3Pal = N[C@H](Cc1cccnc1)C(=O)O

What was measured:
[1] = Serum DHT pharmacokinetics after single oral doses of testosterone or testosterone enanthate in oil with and without dutasteride (Example 2); details: 200, 400, 800 mg; all men
Experimental: Study Design: Participants were randomly assigned to one of two groups: 1) oral testosterone in sesame oil, or 2) oral testosterone enanthate in sesame oil (Delatestryl, BTG Pharmaceuticals, Iselin, N.J.) at a concentration of 200 mg/ml. A sample size of seven subjects per group was estimated to have an 80% power with an α of 0.05 to detect a 50% in the change in serum testosterone area-under-the curve between doses. The oral testosterone enanthate in sesame oil was manufactured by the compounding pharmacy at the University of Washington. Briefly, micronized testosterone (U.S.P. grade, Spectrum Quality Projects, Gardena, Calif., USA) was suspended at 100 mg/ml in sesame oil (N.F. grade, Spectrum Quality Projects, Gardena, Calif., USA), and mixed thoroughly on a magnetic stir plate to create a homogenous testosterone enanthate/sesame oil emulsion. […]
Total serum testosterone was measured by a radioimmunoassay (Diagnostic Products Corporation, Los Angeles, Calif.). […] The normal range was 8.7–33 nmol/L. DHT was measured using an RIA Kit (Diagnostic Systems Laboratory, Los Angeles, Calif.). […] The normal range was 3.2–47 nmol/L. The normal ranges for testosterone, DHT and SHBG were determined in our laboratory using serum samples obtained from 100 normal men aged 20–50 years.
Statistics: Hormone were log transformed prior to analysis. […] Changes between groups were analyzed by ANOVA. […]

[2] = Serum testosterone pharmacokinetics after single oral doses of testosterone or testosterone enanthate in oil with and without dutasteride (Example 2); details: for maximum concentration of testosterone versus normal range: normal range 8.7–33 nmol/L; for serum testosterone after oral administration in oil: 200, 400, 800 mg, all men; for Testosterone AUC (area under-the-curve): serum testosterone, mean ± SD
Experimental: Study Design: Participants were randomly assigned to one of two groups: 1) oral testosterone in sesame oil, or 2) oral testosterone enanthate in sesame oil (Delatestryl, BTG Pharmaceuticals, Iselin, N.J.) at a concentration of 200 mg/ml. A sample size of seven subjects per group was estimated to have an 80% power with an α of 0.05 to detect a 50% in the change in serum testosterone area-under-the curve between doses. The oral testosterone enanthate in sesame oil was manufactured by the compounding pharmacy at the University of Washington. Briefly, micronized testosterone (U.S.P. grade, Spectrum Quality Projects, Gardena, Calif., USA) was suspended at 100 mg/ml in sesame oil (N.F. grade, Spectrum Quality Projects, Gardena, Calif., USA), and mixed thoroughly on a magnetic stir plate to create a homogenous testosterone enanthate/sesame oil emulsion. The compounding pharmacist then drew up the emulsion into syringes at the desired dose levels (200, 400 and 800 mg). The dose of oral testosterone enanthate in sesame oil was normalized for the testosterone content, so that the subjects in the testosterone enanthate group (molecular weight 397) were administered 276, 554 and 1108 mg of testosterone enanthate, corresponding to 200, 400 and 800 mg of testosterone.
(§1) The drug exposure period lasted 12 days (FIG. 6). […] One, two and three days after acyline administration, as per the protocol of FIG. 6, subjects drank 200, 400 or 800 mg of testosterone or testosterone enthanate in oil, mixed with 8 oz of whole milk. These doses were repeated days eight, nine and ten days after the acyline injection. […] For safety, subjects underwent daily testing of liver function (AST, bilirubin, alkaline phosphatase), kidney function (BUN, creatinine) and hematopoiesis (hemoglobin and hematocrit).
(§2) Total serum testosterone was measured by a radioimmunoassay (Diagnostic Products Corporation, Los Angeles, Calif.). […] The normal range was 8.7–33 nmol/L. DHT was measured using an RIA Kit (Diagnostic Systems Laboratory, Los Angeles, Calif.). The sensitivity of this assay was 0.043 nmol/L and the intra-assay variation for mid and low-range pools was 9.9% and 11%, with interassay coefficients of variations of 19 and 25%. […] The normal range was 3.2–47 nmol/L. The normal ranges for testosterone, DHT and SHBG were determined in our laboratory using serum samples obtained from 100 normal men aged 20–50 years.
Statistics: Hormone were log transformed prior to analysis. […] Changes between groups were analyzed by ANOVA. Statistical analyses were performed using STATA ([…], Tex., USA). Type I error was set at 0.05 for all analyses.

[3] = cited from earlier work
[4] = test system: serum proteins (SHBG, albumin); details: cited from earlier work
[5] = in vivo; cited from earlier work
[6] = test system: endogenous testosterone production; experiment: Suppression of endogenous testosterone production by GnRH antagonist acyline; format: in vivo, human
Experimental: as §1, §2

[7] = test system: endogenous testosterone production; details: cited from earlier work
[8] = parameters: species or system human; details: in vivo
Text: The drug exposure period lasted 12 days (FIG. 6).

5-α-reductase = details: cited from earlier work
[9] = men receiving testosterone by intramuscular administration; cited from earlier work

## CCCCCCC(=O)O[C@H]1CC[C@H]2[C@@H]3CCC4=CC(=O)CC[C@]4(C)[C@H]3CC[C@]12C [Testosterone Enanthate-only, testosterone enanthate]
[1]
  serum DHT after oral administration in oil: significantly increased the serum DHT in all men in a dose-dependent fashion
[2]; 400 mg oral dose in oil
  maximum concentration of testosterone versus normal range: exceeding the normal range
[2]; 800 mg oral dose in oil
  maximum concentration of testosterone versus normal range: exceeding the normal range
[2]
  serum testosterone after oral administration in oil: significantly increased in all men in a dose-dependent fashion

## CCCCCCCCCCC(=O)O[C@H]1CC[C@H]2[C@@H]3CCC4=CC(=O)CC[C@]4(C)[C@H]3CC[C@]12C [Testosterone undecanoate]
[3]; oral (Bagchus et al.)
  effect of food intake on absorption: dramatically improved
[3]; oral
  serum DHT on oral TU therapy: well above the normal range
  serum testosterone on oral TU therapy: therapeutic increases

## C[C@]12CC[C@H]3[C@@H](CCC4=CC(=O)CC[C@@]43C)[C@@H]1CC[C@@H]2O [Testosterone-only, testosterone]
[1]
  serum DHT after oral administration in oil: significantly increased the serum DHT in all men in a dose-dependent fashion
[3]; 200 mg doses of oral testosterone, for up to eight hours
  effect on serum testosterone levels: elevate serum testosterone levels to the low normal range
[3]; oral unmodified testosterone at doses up to 100 mg, deficient men
  effect on serum testosterone levels: little effect
[4]
  blood testosterone bound to serum proteins: About 98%
  circulating plasma testosterone bound to sex hormone-binding globulin (SHBG): Approximately 40%
[4]; plasma
  circulating plasma testosterone unbound (free): 2%
[5]
  half-life of testosterone, reported values: 10 to 100 min
[2]; 800 mg oral dose in oil
  maximum concentration of testosterone versus normal range: exceeding the normal range
[2]
  serum testosterone after oral administration in oil: significantly increased in all men in a dose-dependent fashion
[2]; single oral dose 200 mg in oil
  Testosterone AUC (area under-the-curve): 124 ± 28 nmol·h/L
[2]; single oral dose 200 mg in oil, listed as testosterone-alone
  Testosterone AUC (area under-the-curve): 124 ± 28 nmol·h/L
[2]; single oral dose 400 mg in oil
  Testosterone AUC (area under-the-curve): 208 ± 74^a nmol-hours/L
[2]; single oral dose 400 mg in oil, listed as testosterone-alone
  Testosterone AUC (area under-the-curve): 208 ± 74 nmol·h/L
[2]; single oral dose 800 mg in oil
  Testosterone AUC (area under-the-curve): 328 ± 72^a nmol-hours/L
[2]; single oral dose 800 mg in oil, listed as testosterone-alone
  Testosterone AUC (area under-the-curve): 328 ± 82 nmol·h/L

## CC(=O)Nc1ccc(C[C@H](NC(=O)[C@H](CO)NC(=O)[C@@H](Cc2cccnc2)NC(=O)[C@@H](Cc2ccc(Cl)cc2)NC(=O)[C@@H](Cc2ccc3ccccc3c2)NC(C)=O)C(=O)N[C@H](Cc2ccc(NC(C)=O)cc2)C(=O)N[C@@H](CC(C)C)C(=O)N[C@@H](CCCCNC(C)C)C(=O)N2CCC[C@H]2C(=O)N[C@H](C)C(N)=O)cc1 [acyline] (Ac-[d2Nal][dPhe(4-Cl)][d3Pal]S[Phe(4-NH2)](Ac)[dPhe(4-NH2)](Ac)L[Lys(iPr)]P[dA]-NH2)
[6]; all subjects, Day 0 DHT 1.6±0.6, P<0.05
  serum DHT 24 hours after acyline administration (day 1): 0.6 ± 0.2 nmol/L
[6]; all subjects, acyline 300 mcg/kg SQ, day zero 20.0±7.4, P<0.0001
  serum testosterone 24 hours after acyline administration (day one): 2.3 ± 0.5 nmol/L
[6]; testosterone enanthate group
  serum DHT 24-hours post acyline: 0.6 ± 0.2 nmol/L
  serum testosterone 24-hours post acyline: 2.3 ± 0.8 nmol/L
[6]; testosterone group
  serum DHT 24-hours post acyline: 0.5 ± 0.2 nmol/L
  serum testosterone 24-hours post acyline: 2.3 ± 0.7 nmol/L
[7]; previously shown (Herbst et al.)
  duration of suppression of endogenous testosterone production in men: 2 weeks
[7]; single injection 300 mcg/kg SQ
  duration of suppression of testosterone production in normal men: ≥ 15 days
[8]
  injection-site reaction: transient pruritis

## CC(C)(C)NC(=O)[C@H]1CC[C@H]2[C@@H]3CC[C@H]4NC(=O)C=C[C@]4(C)[C@H]3CC[C@]12C [finasteride, (5α,17beta)-N-(1,1-dimethylethyl)-3-oxo-4-azaandrost-1-ene-17-carboxamide]
5-α-reductase; administration of finasteride
  reduction of prostate DHT levels: 90%
  reduction of serum DHT levels: 70%
5-α-reductase; men given finasteride (Gormley et al.)
  increase of testosterone levels: about 10%
[9]
  levels of serum testosterone: without substantial effect
